From the NIST ThermoML archive (doi:10.1021/je600557n)
Numbers after ± are expanded uncertainties.

Tests used:
[1] = 101.33 kPa, Liquid
[2] = molar heat capacity at constant pressure; settings: 101.33 kPa, Liquid, Small sample (50 mg) DSC
[3] = refractive index (Na D-line) (dimensionless); settings: 101.33 kPa, Liquid, Standard Abbe refractometry

SMILES	mass density ([1]; 293.15 K)	viscosity ([1]; 293.15 K)	mass density ([1]; 303.15 K)	viscosity ([1]; 303.15 K)	mass density ([1]; 313.15 K)	viscosity ([1]; 313.15 K)	molar heat capacity at constant pressure ([2]; 288.15 K)	molar heat capacity at constant pressure ([2]; 293.15 K)	molar heat capacity at constant pressure ([2]; 298.15 K)	molar heat capacity at constant pressure ([2]; 303.15 K)	molar heat capacity at constant pressure ([2]; 308.15 K)	molar heat capacity at constant pressure ([2]; 313.15 K)	molar heat capacity at constant pressure ([2]; 318.15 K)	molar heat capacity at constant pressure ([2]; 323.15 K)	refractive index ([3]; 293.15 K)	refractive index ([3]; 303.15 K)	refractive index ([3]; 313.15 K)
C1CCOCC1 [tetrahydropyran]	883.79 ± 0.62 kg/m3	0.875 ± 0.014 mPa·s	873.95 ± 0.64 kg/m3	0.752 ± 0.012 mPa·s	863.62 ± 0.66 kg/m3	0.658 ± 0.011 mPa·s	143.4 ± 2.2 J/K/mol	145.2 ± 2.3 J/K/mol	147.8 ± 2.3 J/K/mol	150.2 ± 2.3 J/K/mol	152.6 ± 2.4 J/K/mol	156 ± 2.4 J/K/mol	157.6 ± 2.4 J/K/mol	159.9 ± 2.5 J/K/mol	1.4235 ± 0.0008	1.4171 ± 0.0007	1.4119 ± 0.0007
C[S+](C)[O-] [dimethyl sulfoxide]	1100.42 ± 0.23 kg/m3	2.213 ± 0.033 mPa·s	1090.41 ± 0.22 kg/m3	1.812 ± 0.027 mPa·s	1080.26 ± 0.21 kg/m3	1.513 ± 0.023 mPa·s	149.9 ± 2.3 J/K/mol	150.4 ± 2.3 J/K/mol	151.5 ± 2.3 J/K/mol	152.2 ± 2.4 J/K/mol	152.9 ± 2.4 J/K/mol	153.7 ± 2.4 J/K/mol	154.7 ± 2.4 J/K/mol	155.6 ± 2.4 J/K/mol	1.4815 ± 0.0007	1.475 ± 0.0007	1.4706 ± 0.0006
CC1CCCO1 (stereo unspecified) [2-methyltetrahydrofuran]	853.15 ± 0.68 kg/m3	0.492 ± 0.008 mPa·s	842.8 ± 0.7 kg/m3	0.443 ± 0.008 mPa·s	832.44 ± 0.72 kg/m3	0.416 ± 0.007 mPa·s	153.5 ± 2.4 J/K/mol	155.3 ± 2.4 J/K/mol	156.9 ± 2.4 J/K/mol	158.7 ± 2.5 J/K/mol	160.2 ± 2.5 J/K/mol	162.1 ± 2.5 J/K/mol	164.2 ± 2.5 J/K/mol	166.2 ± 2.6 J/K/mol	1.4085 ± 0.0008	1.4017 ± 0.0007	1.3959 ± 0.0007
